Measurements taken from patent publication US20060258754A1, “Method of treating endothelial dysfunction, oxidative stress and related diseases” (priority 2004, published 2006).
Entries after “also recorded” stand apart in the source; their conditions may differ.

Experiments:
[1] = system: DNA; conditions: pro-oxidant potential; cited from earlier work
[2] = system: aortic rings; assay: Rat aortic thoracic rings: acetylcholine relaxation after phenylephrine contraction, 4-week oral treatment; assay type: in vivo, alloxan-diabetic male Wistar rats; conditions: chronic oral administration, acetylcholine 10^-7 M, FIG. 3
Method: Male Wistar rats, weighing between 230-250 g, fed regular chow, with free access to water were separated in four groups (n=10/each). The first two groups, termed normoglycemic, were treated with saline (0.1 mL/100 g/12 h) by the oral route (intragastric gavage) or untreated for four weeks. The second two groups, hyperglycemic, were treated with saline (0.1 mL/100 g/12 h) or treated with D-chiro-inositol (20 mg/kg/12 h) under the same protocol. […] Diabetes was induced by a single intravenous injection of 45 mg/kg alloxan as described by Sannomiya et al., 1997 ( ). Diabetes was diagnosed 96 h after injection by blood glucose assay >200 mg/dL. All protocols were approved by the local committee and follow the Guide for the Care and Use of Laboratory Animals published by the US National Institutes of Health (NIH Publication No. 85-23, revised 1996). After completion of blood pressure measurements and vascular mesenteric bed collection, animals were sacrificed by exsanguination while under anesthesia. The thoracic aorta was excised and rapidly cleansed of connective tissue in Petri dishes containing warmed and gassed (95% O2 in 5% CO2) Krebs-Henseleit solution (KHS). The aorta segment was cut in small rings (≈5 mm) and mounted horizontally in 5 mL chambers for isometric recording of tension. The resting tension was adjusted to 1 g and the tissue allowed to equilibrate for 1 hour with a 15 min washout period. Tissues were kept in KHS at 37° C., gassed with the O2, CO2 mixture and isometric recordings made with a force displacement transducer connected to a four-channel polygraph (Narco Biosystems, Houston, Tex., USA). After the equilibration period, tissues were contracted with a submaximal concentration of phenylephrine (≈60% maximal response) until two similar responses were obtained in order to ensure reproducibility of the contraction curves. […] The acetylcholine dose response curve was repeated after a 60 min washout interval. All experiments were performed in the presence of indomethecin (10 μM) and guanethidine (10 μM) to prevent the production of vasoactive prostanoids. At least 6 separate experiments will be performed each in duplicate.

[3] = system: human erythrocytes and human cataractous lenses; conditions: cited from earlier work
[4] = system: ROS generated by xanthine/xanthine oxidase; assay: Superoxide assay in vitro: xanthine/xanthine oxidase, NBT reduction; assay type: biochemical; conditions: low micromolar concentrations, FIG. 10
Method: Superoxide radicals were generated by the reaction of xanthine (1 mM) and xanthine oxidase ([…]) in air-saturated potassium phosphate buffer (pH 7.8 at 25° C.). Superoxide anions were detected by nitroblue tetrazolium (NBT—50 μM) which undergoes reduction by O2-. to its formazan. The rate of reduction was monitored spectrophotometrically at 560 nm with an Ultrospec 1000 (Pharmacia Biotech, Cambridge, England). SOD-1, by scavanging O2-. Diminishes the rate of reduction of NBT. The volume was fixed at 2 mL. Each experiment was run in duplicate.

[5] = system: vascular mesenteric bed; assay: Rat arteriolar mesenteric bed: acetylcholine-evoked decrease in perfusion pressure after 4-week oral treatment; assay type: in vivo, alloxan-diabetic male Wistar rats; conditions: chronic (4-week) oral administration, highest acetyl choline concentrations, FIG. 4
Method: Male Wistar rats, weighing between 230-250 g, fed regular chow, with free access to water were separated in four groups (n=10/each). The first two groups, termed normoglycemic, were treated with saline (0.1 mL/100 g/12 h) by the oral route (intragastric gavage) or untreated for four weeks. The second two groups, hyperglycemic, were treated with saline (0.1 mL/100 g/12 h) or treated with D-chiro-inositol (20 mg/kg/12 h) under the same protocol. […] Diabetes was induced by a single intravenous injection of 45 mg/kg alloxan as described by Sannomiya et al., 1997 ( ). Diabetes was diagnosed 96 h after injection by blood glucose assay >200 mg/dL. All protocols were approved by the local committee and follow the Guide for the Care and Use of Laboratory Animals published by the US National Institutes of Health (NIH Publication No. 85-23, revised 1996).
The mesentery was carefully removed by cutting close to the intestinal border with a small scissors. […] The vascular bed was rapidly perfused with warm KHS (37° C.; pH 7.4; gassed with 95% O2 in 5% CO2) in an open system with a constant flow of 4 ml/min maintained with a peristaltic pump. Alterations in perfusion pressure were continuously recorded in a four-channel polygraph (Narco Biosystems, Houston, Tex., USA) by means of a pressure transducer (P23 Gould Stratham, Oxnard, Calif., USA). After a 30 minute equilibration period, phenylephrine (1 to 5 μM) was infused by means of an infusion pump at a constant rate (0.1 ml/min) in order to achieve a stable perfusion pressure (100-120 mm Hg). Dose response curves were performed with vasodilators, i.e. acetylcholine (Ach; 10^-9 to 10^-3 M). Drugs were injected as 50 μL boluses, previously shown not to effect perfusion pressure in a side arm just above the cannula in the mesenteric artery. At least 6 separate experiments were performed each in duplicate.

[6] = system: penile corpus cavernosus; assay: Rabbit penile corpus cavernosus: relaxation to electrical field stimulation after 60 min incubation; set-up: species or system low dose alloxan-diabetic rabbit; conditions: 1 μM, EFS 2-16 Hz, FIG. 8
Method: Male California rabbits, weighing 2-2.5 kg, were provided by the vivarium of the Biomedicine Institute-UFC. Diabetes was induced by intraperitoneal injection of alloxan (150 mg/kg) and only animals with plasma glucose concentration above 200 mg/dl were included in the study. Age-matched euglycemic rabbits were used as controls.
Kidneys and aortic rings were harvested from diabetic rabbits after 3 weeks of alloxan injection. The animals were sacrificed under sodium pentobarbital anesthesia (Hypnol®, 150-200 mg/kg). […]. Rabbit kidneys were obtained from male New Zealand rabbits (1-1.5 kg) after cannulation of the renal artery in situ. [Thereafter the organ is rapidly perfused with warm KHS at 37° C., pH 7.4 and gassed with 95% O2 in 5% CO2 in an open system with a constant flow adjusted to yield 1 mL/g/min and maintained by a peristaltic pump. The alterations in perfusion pressure are continuously recorded in a four-channel polygraph (Narco Biosystems, Houston, Tex., USA) by means of a pressure transducer (P23 Gould Stratham, Oxnard, Calif., USA). After a 30 minute equilibration period, phenylephrine (1 to 5 μM) is infused by means of an infusion pump at a constant rate (0.1 ml/min) in order to achieve a stable perfusion pressure (100-120 mm Hg). Concentration-response curves are performed to the vasodilators, i.e. acetylcholine (Ach; 10^-9 to 10^-3 M). Drugs are injected as a 50 μL bolus, previously shown not to effect perfusion pressure in an arm side just above the cannula in the renal artery.] Following penectomy, the corpus cavernosum was dissected in Krebs solution and cleared of the tunica albuginea and surrounding tissues. Strips (2 cm) were mounted vertically in isometric baths (5 mL) in Krebs-Henseleit solution (37° C., pH 7.4 gassed with 95% O2 in 5% CO2) enriched with indomethecin (10 μM) and guanethedine (10 μM) in order to avoid prostanoid or neuronal norandrenergic interaction. After a 60 minute period for stabilization, tissues were precontracted with 10 μM phenylephrine in order to increase the basal tonus. Thereafter, frequency response curves to transmural electrical field stimulations (EFS—square wave pulses: 10 s train; 20 V, 0.5 ms, 2-16 Hz) were performed until two stable reproducible curves were attained. Then, frequency response curves were repeated after 60 min incubation with saline or 1 μM pinitol, DCI or db-DCI in the alloxan-diabetic rabbits. They are perfused with KHS containing 1 μM D-chiro-inositol, pinitol, dibutyryl D-chiro-inositol, myo-inositol or saline for 60 min. Dose response curves for acetylcholine are then performed following prior phenylephrine vasoconstriction as described. At least 6 separate experiments were performed each in duplicate.

| Compound | oxidative DNA damage [1] | effect on macrovascular endothelial dysfunction at intermediate acetylcholine concentration [2] | reduction of ROS generated by xanthine/xanthine oxidase [4] | effect on microvascular endothelial dysfunction [5] | other results |
| --- | --- | --- | --- | --- | --- |
| CC(=O)N[C@@H](CS)C(=O)O [N-acetylcysteine] | cause oxidative DNA damage | – | – | – | – |
| Vitamin A | cause oxidative DNA damage | – | – | – | – |
| O=P(O)(O)O[C@H]1[C@H](OP(=O)(O)O)[C@@H](OP(=O)(O)O)[C@H](OP(=O)(O)O)[C@@H](OP(=O)(O)O)[C@H]1OP(=O)(O)O [Phytic acid, Myoinositol hexaphosphate] | does not cause oxidative DNA damage even at high concentrations | – | – | – | – |
| O[C@H]1[C@H](O)[C@@H](O)[C@H](O)[C@@H](O)[C@H]1O [myoinositol, reference compound] | – | followed by DCI, pinitol and myoinositol in descending order of effect | reduced ROS in a low micromolar concentration dependant manner | perhaps slightly better than pinitol and DCI | effect on macrovascular endothelial dysfunction at intermediate acetylcholine concentration ([2]; listed as myo-inositol): active at intermediate acetyl choline concentrations; peroxidation effect of hydrogen peroxide [3]: decrease the peroxidation effect of hydrogen peroxide; reduction of ROS generated by xanthine/xanthine oxidase ([4]; listed as myo-inositol): equally effective; effect on microvascular endothelial dysfunction ([5]; listed as myo-inositol): perhaps slightly better than pinitol and D-chiro-inositol |
| O=c1c(O)c(-c2ccc(O)c(O)c2)oc2cc(O)cc(O)c12 [quercetin] | cause oxidative DNA damage | – | – | – | – |
| CO[C@H]1[C@H](O)[C@@H](O)[C@@H](O)[C@H](O)[C@@H]1O [pinitol] | – | followed by DCI, pinitol and myoinositol in descending order of effect; also recorded: active at intermediate acetyl choline concentrations | equally effective; also recorded: reduced ROS in a low micromolar concentration dependant manner | approximately equally effective | restoration of vasorelaxant effect of electrical stimulation of the pudendal nerve [6]: restoration of vasorelaxant effect |
